Values joined by “and” are separate entries in the source; they are usually repeats but may differ in a detail not shown here. Identical values can stand only once. Toxic doses and inconclusive results are not listed. How the source made its calls: active means survival T/C of 150% or more; inactive means T/C below 125% in these data.
System: BDF1 mice, P388 leukemia ip, median survival T/C
Assay: NCI In Vivo Anticancer Drug Screen. Data for tumor model P388 Leukemia (intraperitoneal) in B6D2F1 (BDF1) mice
Conditions: endpoint: median survival time, higher = longer survival
Procedure, shortened: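 Antitumour effect was judged in vivo: survival in drug-treated mice, normalised to that of vehicle-dosed controls, gives the reported T/C.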

[1] = dose: 25.0 mg/kg/injection, schedule: Q01DX009 (ip), vehicle: saline with Tween-80
[2] = dose: 25.0 mg/kg/injection, schedule: Q04DX003 (ip), vehicle: saline with Tween-80
[3] = dose: 50.0 mg/kg/injection, schedule: Q01DX009 (ip), vehicle: saline with Tween-80
[4] = dose: 50.0 mg/kg/injection, schedule: Q04DX003 (ip), vehicle: saline with Tween-80
[5] = dose: 100.0 mg/kg/injection, schedule: Q01DX009 (ip), vehicle: saline with Tween-80
[6] = dose: 200.0 mg/kg/injection, schedule: Q01DX009 (ip), vehicle: saline with Tween-80
[7] = dose: 400.0 mg/kg/injection, schedule: Q01DX009 (ip), vehicle: saline with Tween-80
[8] = dose: 100.0 mg/kg/injection, schedule: Q01DX009 (ip), vehicle: Klucel (hydroxypropylcellulose) (HPC)
[9] = dose: 100.0 mg/kg/injection, schedule: Q04DX003 (ip), vehicle: Klucel (hydroxypropylcellulose) (HPC)
[10] = dose: 200.0 mg/kg/injection, schedule: Q01DX009 (ip), vehicle: Klucel (hydroxypropylcellulose) (HPC)
[11] = dose: 200.0 mg/kg/injection, schedule: Q04DX003 (ip), vehicle: Klucel (hydroxypropylcellulose) (HPC)
[12] = dose: 400.0 mg/kg/injection, schedule: Q01DX009 (ip), vehicle: Klucel (hydroxypropylcellulose) (HPC)
[13] = dose: 400.0 mg/kg/injection, schedule: Q04DX003 (ip), vehicle: Klucel (hydroxypropylcellulose) (HPC)
[14] = dose: 100.0 mg/kg/injection, schedule: Q04DX003 (ip), vehicle: saline with Tween-80
[15] = dose: 200.0 mg/kg/injection, schedule: Q04DX003 (ip), vehicle: saline with Tween-80
[16] = dose: 400.0 mg/kg/injection, schedule: Q04DX003 (ip), vehicle: saline with Tween-80
[17] = dose: 150.0 mg/kg/injection, schedule: Q04DX003 (ip), vehicle: saline with Tween-80

Measured: T/C

Cc1[nH]c(=O)[nH]c(=O)c1NC(=O)c1ccccc1[N+](=O)[O-]
inactive: dose: 12.5 mg/kg/injection, schedule: Q01DX009 (ip), vehicle: saline with Tween-80 95 % of control | dose: 12.5 mg/kg/injection, schedule: Q04DX003 (ip), vehicle: saline with Tween-80 92 % of control | [1] 104 % of control | [2] 92 % of control | [3] 87 % of control | [4] 92 % of control

CCN(CC)CCCC(C)Nc1ccnc2cc(Cl)cnc12 (centres undefined) (tested in a mixture with another compound)
inactive: [3] 107 % of control | [5] 114 % of control | [6] 98 % of control

NNC(=O)c1cnccn1
inactive: dose: 40.0 mg/kg/injection, schedule: Q01DX010 (ip), vehicle: water 100 % of control | dose: 60.0 mg/kg/injection, schedule: Q01DX010 (ip), vehicle: water 100 % of control | dose: 80.0 mg/kg/injection, schedule: Q01DX010 (ip), vehicle: water 100 % of control and 109 % of control

COc1ccc(/C=C/C(=O)c2ccc(OC)c(OC)c2)cc1OC
inactive: [5] 90 % of control | [6] 104 % of control | [7] 118 % of control

C[C@]12C[C@H](O)[C@H]3[C@@H](CCC4=CC(=O)CC[C@@]43C)[C@@H]1CC[C@@H]2C(=O)CO
inactive: dose: 45.0 mg/kg/injection, schedule: Q04DX003 (sc), vehicle: steriod suspending solution 95 % of control | dose: 65.0 mg/kg/injection, schedule: Q04DX003 (sc), vehicle: steriod suspending solution 100 % of control | dose: 200.0 mg/kg/injection, schedule: Q04DX003 (sc), vehicle: steriod suspending solution 115 % of control | dose: 264.0 mg/kg/injection, schedule: Q01DX009 (sc), vehicle: steriod suspending solution 109 % of control | dose: 264.0 mg/kg/injection, schedule: Q04DX003 (sc), vehicle: steriod suspending solution 110 % of control | dose: 400.0 mg/kg/injection, schedule: Q01DX009 (sc), vehicle: steriod suspending solution 122 % of control | dose: 400.0 mg/kg/injection, schedule: Q04DX003 (sc), vehicle: steriod suspending solution 110 % of control

O=C(O)C1CC=CCCC1 (centres undefined)
inactive: [8] 95 % of control | [9] 91 % of control | [10] 104 % of control | [11] 95 % of control | [12] 104 % of control | [13] 91 % of control

CC1=C2CC(C)(C)/C=C\C(=O)/C(C)=C\C3=C[C@H](C)C[C@]3(O2)C1=O
inactive: dose: 0.5 mg/kg/injection, schedule: Q01DX010 (ip), vehicle: carboxymethylcellulose (CMC) 100 % of control | dose: 1.0 mg/kg/injection, schedule: Q01DX010 (ip), vehicle: carboxymethylcellulose (CMC) 100 % of control | dose: 2.0 mg/kg/injection, schedule: Q01DX010 (ip), vehicle: carboxymethylcellulose (CMC) 100 % of control | dose: 4.0 mg/kg/injection, schedule: Q01DX010 (ip), vehicle: carboxymethylcellulose (CMC) 104 % of control | dose: 8.0 mg/kg/injection, schedule: Q01DX010 (ip), vehicle: carboxymethylcellulose (CMC) 95 % of control

Cc1cccc(Nc2sc(C(=O)c3cc4cc(Cl)ccc4o3)c(N)c2C#N)c1
inactive: [3] 108 % of control | [5] 102 % of control | [6] 111 % of control

Cc1ccc(S(=O)(=O)N2CCC(=O)c3ccc(Cl)cc32)cc1
inactive: [9] 100 % of control | [10] 100 % of control | [11] 104 % of control | [12] 95 % of control | [13] 104 % of control

CN(C)C(=S)SSC(=S)N(C)C
inactive: dose: 25.0 mg/kg/injection, schedule: Q04DX003 (ip), vehicle: Klucel (hydroxypropylcellulose) (HPC) 109 % of control | dose: 50.0 mg/kg/injection, schedule: Q04DX003 (ip), vehicle: Klucel (hydroxypropylcellulose) (HPC) 118 % of control | dose: 100.0 mg/kg/injection, schedule: Q01DX001 (ip), vehicle: Klucel (hydroxypropylcellulose) (HPC) 100 % of control | [9] 113 % of control | dose: 200.0 mg/kg/injection, schedule: Q01DX001 (ip), vehicle: Klucel (hydroxypropylcellulose) (HPC) 109 % of control | dose: 400.0 mg/kg/injection, schedule: Q01DX001 (ip), vehicle: Klucel (hydroxypropylcellulose) (HPC) 113 % of control

CC(=O)OCCN1c2ccccc2Sc2cnccc21
inactive: [14] 104 % of control | [15] 90 % of control | [16] 95 % of control

CC(C)COC(=O)C(C)Oc1ccc(Oc2ccc(Cl)cc2)cc1 (centres undefined)
inactive: [3] 98 % of control | [5] 116 % of control | [6] 91 % of control

O=I(=O)c1ccccc1
inactive: dose: 12.5 mg/kg/injection, schedule: Q01DX009 (ip), vehicle: Klucel (hydroxypropylcellulose) (HPC) 91 % of control | dose: 17.0 mg/kg/injection, schedule: Q01DX009 (ip), vehicle: saline with Tween-80 92 % of control | dose: 25.0 mg/kg/injection, schedule: Q01DX009 (ip), vehicle: Klucel (hydroxypropylcellulose) (HPC) 86 % of control and 100 % of control | [1] 96 % of control | [2] 100 % of control | dose: 37.0 mg/kg/injection, schedule: Q01DX009 (ip), vehicle: saline with Tween-80 96 % of control | dose: 50.0 mg/kg/injection, schedule: Q01DX009 (ip), vehicle: Klucel (hydroxypropylcellulose) (HPC) 86 % of control and 90 % of control and 118 % of control | [3] 115 % of control | [4] 90 % of control | [8] 104 % of control | [5] 120 % of control | [14] 90 % of control

CCOC(=O)C(=Cc1c[nH]c2ccccc12)C(=O)OCC
inactive: dose: 45.0 mg/kg/injection, schedule: Q04DX003 (ip), vehicle: saline with Tween-80 109 % of control | dose: 65.0 mg/kg/injection, schedule: Q04DX003 (ip), vehicle: saline with Tween-80 113 % of control | [14] 100 % of control and 105 % of control | [17] 109 % of control | [15] 100 % of control and 118 % of control | [16] 90 % of control and 109 % of control

COc1ccc(C2(C(=O)O)CCCC2)cc1
inactive: [5] 95 % of control | [14] 104 % of control | [6] 91 % of control | [15] 100 % of control | [7] 91 % of control | [16] 112 % of control

CCOC(=O)C1=C(N)n2c(s/c(=C/c3ccc(N(C)C)cc3)c2=O)=C(C(=O)OCC)C1c1ccc(N(C)C)cc1 (centres undefined)
inactive: dose: 50.0 mg/kg/injection, schedule: Q01DX005 (ip), vehicle: saline with Tween-80 101 % of control | dose: 100.0 mg/kg/injection, schedule: Q01DX005 (ip), vehicle: saline with Tween-80 97 % of control | dose: 200.0 mg/kg/injection, schedule: Q01DX005 (ip), vehicle: saline with Tween-80 99 % of control

ClCC(Cl)CN1CCCCC1 (centres undefined)
inactive: dose: 12.5 mg/kg/injection, schedule: Q01DX009 (ip), vehicle: saline 90 % of control | dose: 25.0 mg/kg/injection, schedule: Q01DX009 (ip), vehicle: saline 86 % of control | dose: 50.0 mg/kg/injection, schedule: Q01DX009 (ip), vehicle: saline 104 % of control

C=C1CCC2(C)C(O)CC3(C)C(CCC4C5(C)CCC(OC(C)=O)C(C)(C)C5CCC43C)C2C1C (centres undefined)
inactive: dose: 1.0 mg/kg/injection, schedule: Q01DX009 (ip), vehicle: saline + alcohol 97 % of control | dose: 2.0 mg/kg/injection, schedule: Q01DX009 (ip), vehicle: saline + alcohol 106 % of control | dose: 4.0 mg/kg/injection, schedule: Q01DX009 (ip), vehicle: saline + alcohol 92 % of control

COc1cc([N+](=O)[O-])c(C)cc1Nc1ccc(OC)c(OC)c1
inactive: [3] 100 % of control | [5] 103 % of control and 106 % of control | [14] 100 % of control | [6] 87 % of control and 94 % of control | [15] 100 % of control | [7] 97 % of control and 100 % of control | [16] 90 % of control

FC(F)(F)c1cccc(C=Nc2ccc(Oc3ccccc3)cc2)c1
inactive: dose: 50.0 mg/kg/injection, schedule: Q01DX009 (ip), vehicle: saline + alcohol 97 % of control | dose: 100.0 mg/kg/injection, schedule: Q01DX009 (ip), vehicle: saline + alcohol 91 % of control | dose: 200.0 mg/kg/injection, schedule: Q01DX009 (ip), vehicle: saline + alcohol 100 % of control

Cc1ccc(C(=O)/C=C/N2CCN(c3ccccc3)CC2)c(C)c1
inactive: [14] 100 % of control | [15] 100 % of control | [16] 90 % of control

O=C(O)c1cc(C(=O)O)cc(S(=O)(=O)F)c1
inactive: dose: 75.0 mg/kg/injection, schedule: Q04DX003 (ip), vehicle: saline with Tween-80 104 % of control | [5] 105 % of control | [17] 108 % of control | [6] 95 % of control | dose: 300.0 mg/kg/injection, schedule: Q04DX003 (ip), vehicle: saline with Tween-80 104 % of control

Reference: PubChem BioAssay AID328 (DTP/NCI, 2004)
